pKi: −log10 of the molar value.
Biological target: human and rat GPR-14
Test: Radioligand binding ([125I] h-U-II)
Conditions: radioligand binding assay; HEK-293 cell membranes, 200 pM [125I] h-U-II; species (human or rat) not given
Method: HEK-293 cell membranes containing stable cloned human and rat GPR-14 (20 ug/assay) were incubated with 200 pM [125I] h-U-II (200 Ci/mmol^−1 in the presence of increasing concentrations of test compounds in DMSO (0.1 nM to 10 uM), in a final incubation volume of 200 ul (20 mM Tris-HCl, 5 mM MgCl2). Incubation was done for 30 minutes at room temperature followed by filtration GF/B filters with Brandel cell harvester. ^125I labeled U-II binding was quantitated by gamma counting. Nonspecific binding was defined by ^125I U-II binding in the presence of 100 nM of unlabeled human U-II. Analysis of the data was performed by nonlinear least square fitting.

O=C(NC1CCN(S(=O)(=O)c2cc(Cl)c(OC3CCNCC3)c(Cl)c2)C1)c1ccc(Cl)c(Cl)c1 (stereo not shown) [Example 5]
pKi: 5.82

Reference: patent publication US20040142923A1, “Pyrrolidine sulfonamides” (priority 2003, published 2004)
